Reference: patent US20020110602A1, “Method and apparatus for washing produce” (priority 2000, published 2002)
Values joined by “and” are separate entries in the source; they are usually repeats but may differ in a detail not shown here. Equal values may be shown once. Read-outs that look alike come from different tables or passages of the source.

Legend:
P. digitatum [1] = test: Effect of pH and bicarbonate concentration on decay of oranges; assay type: in vivo, Penicillium digitatum
Green Mold [2] = test: Washing of oranges inoculated with Green Mold, decay; assay type: in vivo, Penicillium digitatum; conditions: oranges infected by green mold; four groups of 25; pressure washer, or soak tank for soda ash, sodium bicarbonate
[3] = tested on: sour rot (Geotrichum Candidum); test: Effect of treatments on sour rot decay of lemons; assay type: in vivo
P. digitatum [4] = conditions: lemons inoculated 48 hours before treatment; immersion; cited from earlier work
P. digitatum [5] = test: Immersion washing of oranges with various solutions, decay; assay type: in vivo, Penicillium digitatum
P. digitatum isolate M6R [6] = conditions: lemons, 1 or 3% wt/vol, 200 micrograms/ml free NaOCl, pH 8.3, controls 97%
P. digitatum isolate M6R [7] = conditions: oranges, 1 or 3% wt/vol, 200 micrograms/ml free NaOCl, pH 8.3, controls 97%
Green Mold [8] = conditions: 35 seconds, 2 weeks at 50° F.
Green Mold [9] = conditions: 35 seconds, 2 weeks at 50° F.; remark: listed apart in the source
[10] = tested on: P. digitatum (M6R strain); test: SOPP, sodium bicarbonate & chlorine treatment, navel orange decay control; assay type: in vivo, Penicillium digitatum
[11] = tested on: P. digitatum (M6R strain); test: High pressure washing of inoculated navel oranges with sodium hypochlorite solution, no bicarbonate; assay type: in vivo, Penicillium digitatum; conditions: 2 weeks at 55° F.; for % Fruit Decay (Average): navel oranges; for Total Decay: number of decayed navel oranges; for No decay: number of navel oranges without decay
P. digitatum [12] = conditions: fresh oranges and lemons; pressure washing; FIG. 6
[13] = first set of data, four groups of 25
[14] = second set of data, dipping, pH 7.5, alone
[15] = second set of data, dipping, pH 11.4, alone
[16] = second set of data, four groups of 25
[17] = pressure washer (100 psi), navel oranges, replicates R1-R4, 2 weeks at 55° F., listed as Chlorine @ 200 ppm
[18] = high pressure (about 300 psi) wash
[19] = low pressure (about 95 psi) wash

For `CC/C=C\CC1C(=O)CCC1CC(=O)OC` (stereo not shown) [Methyl jasmenate, high rate, Methyl jasmenate], the “Mean Decay (%)” value (P. digitatum [1]; [13]) was 100.000% and the “Mean Decay (%)” value (P. digitatum [1]; second set of data, dipping) was 100.000%.

In the case of `OCl` [HOCl pH 8.4, HOCl], the “Mean Decay (%)” value (P. digitatum [1]; [13]) is reported as 99.000% and the “Mean Decay (%)” value (P. digitatum [1]; second set of data, dipping, listed as HOCl pH 8.4 alone) is reported as 99.000%.

For `O=C([O-])O.[Na+]` [0.3 M sodium bicarbonate, pH 8.4, sodium bicarbonate], the “Mean Decay (%)” value (P. digitatum [1]; [13]) was 43.000% and the “Mean Decay (%)” value (P. digitatum [1]; second set of data, dipping, pH 8.4, alone) was 43.000%.

For `O=C([O-])O.[Na+]` [0.15 M sodium bicarbonate, pH 7.5, sodium bicarbonate], the “Mean Decay (%)” value (P. digitatum [1]; [13]) was 65.000% and the “Mean Decay (%)” value (P. digitatum [1]; [14]) was 65.000%.

With `[O][Cl+][O-]` [Oxine 75 ppm alone at 80° F., chlorine dioxide] the “Mean Decay (%)” value (Green Mold [2]) was 14.000%, the “Mean Decay (%)” value ([3]; first set of data, four groups of 25, 80° F.) was 22.338% and the “Mean Decay (%)” value ([3]; second set of data, four groups of 25, listed as Oxine 75 ppm 80° F.) was 22.358%.

For `O=C([O-])[O-].[Na+].[Na+]` [sodium carbonate], the “reduction of incidence of infections from wounds” value (P. digitatum [4]) is given as “more than 90%”.

In the case of `[O][Cl+][O-]` [Oxine 200 ppm alone at 80° F., chlorine dioxide], the “Mean Decay (%)” value (Green Mold [2]) is reported as 18.000%, the “Mean Decay (%)” value ([3]; first set of data, four groups of 25, listed as Ozine 200 ppm, alone 80° F.) is reported as 10.818% and the “Mean Decay (%)” value ([3]; second set of data, four groups of 25, listed as Oxine 200 ppm 80° F.) is reported as 10.878%.

With `O=C([O-])O.[Na+]` [BCB 0.25% alone, sodium bicarbonate] the “Mean Decay (%)” value (P. digitatum [5]; in vivo) was 46.000%.

With `O=C([O-])O.[Na+]` [BCB 1% alone, sodium bicarbonate] the “Mean Decay (%)” value (P. digitatum [5]; in vivo) was 13.000%.

For `O=C([O-])O.[Na+]` [sodium bicarbonate], the mean decay (P. digitatum isolate M6R [6]; HPSW at 2150 kPa (320 psi)) was 17%, the “mean incidence of decay” value (P. digitatum isolate M6R [6]; tank treatment 35 seconds) was 22% and the mean decay (P. digitatum isolate M6R [7]; HPSW at 2150 kPa (320 psi)) was 20%. For the same compound, the “mean incidence of decay” value (P. digitatum isolate M6R [7]; tank treatment 35 seconds) was 19%.

For `OCl` [HOCl pH 11.4, HOCl], the “Mean Decay (%)” value (P. digitatum [1]; [13]) was 95.000% and the “Mean Decay (%)” value (P. digitatum [1]; [15]) was 95.000%.

In the case of `O=C([O-])O.[Na+]` [BCB 0.5% alone, sodium bicarbonate], the “Mean Decay (%)” value (P. digitatum [5]; in vivo) is reported as 27.000%, the “Decay (%) Oranges” value (Green Mold [8]; high pressure washing) is reported as 76.3% and the “Decay (%) Oranges” value (Green Mold [8]; low pressure washing) is reported as 82.7%. The “Decay (%) Oranges” value (Green Mold [8]; no pressure washing, dip) was 56.9%, the “Decay (%) Lemons” value (Green Mold [9]; high pressure washing) was 55.3% and the “Decay (%) Lemons” value (Green Mold [9]; low pressure washing) was 66.2%. The “Decay (%) Lemons” value (Green Mold [9]; no pressure washing, dip) was 45.1%.

In the case of `[Na+].[O-]Cl` [NaOCl 200 ppm pH 7.5 alone at 80° F., sodium hypochlorite], the “Mean Decay (%)” value (Green Mold [2]) is reported as 17.000%, the “Mean Decay (%)” value [3, 13] is reported as 18.112% and the “Mean Decay (%)” value [3, 16] is reported as 18.112%.

With `[O][Cl+][O-]` [Oxine 3-6 ppm alone at 80° F., chlorine dioxide] the “Mean Decay (%)” value (Green Mold [2]) was 14.000%, the “Mean Decay (%)” value ([3]; first set of data, four groups of 25, listed as Oxine 3-8 ppm, 80° F.) was 21.710% and the “Mean Decay (%)” value ([3]; second set of data, four groups of 25, listed as Oxine 5-8 ppm 80° F.) was 21.710%.

For `[Na+].[O-]Cl` [HOCl 200 ppm alone, sodium hypochlorite], the “Mean Decay (%)” value (P. digitatum [5]; immersion, oranges, mean of four samples of 25) was 88.000%, the “Mean Decay (%)” value ([10]; 100 psi wash, navel oranges (Table 10)) was 99.3% (a) and the “Decay Control (%)” value ([10]; 100 psi wash, navel oranges, relative to inoculated control) was 0.0%. The “% Decay, Mean %” value ([10]; pressure washer (100 psi), navel oranges, mean of four replicates) was 99.3%, the “# Decay” value [10, 17] was 105 and 104 and 95 and 98 and the “# Healthy” value [10, 17] was 0 and 1 (3×). The “% Decay” value [10, 17] was 100.0% and 99.0% (3×).

For `[Na+].[O-]Cl` [Low Cl, sodium hypochlorite], the “% Fruit Decay (Average)” value [11, 18] was 98.5%, the “% Fruit Decay (Average)” value [11, 19] was 99.5% and the “Total Decay” value [11, 18] was 201. The “Total Decay” value [11, 19] was 199, the No decay [11, 18] was 3 and the No decay [11, 19] was 1.

For `O=C([O-])O.[Na+]` [0.3 M sodium bicarbonate, pH 7.5, sodium bicarbonate], the “Mean Decay (%)” value (P. digitatum [1]; [13]) was 41.000% and the “Mean Decay (%)” value (P. digitatum [1]; [14]) was 41.000%.

In the case of `O=C([O-])[O-].[Na+].[Na+]` [Soda ash 3% w/v at 80° F., sodium carbonate], the “Mean Decay (%)” value (Green Mold [2]) is reported as 11.000%, the “Mean Decay (%)” value [3, 13] is reported as 10.638% and the “Mean Decay (%)” value [3, 16] is reported as 10.856%. The “Decay (%) Oranges” value (Green Mold [8]; no pressure washing, dip) was 13.0% and the “Decay (%) Lemons” value (Green Mold [9]; no pressure washing, dip) was 6.8%.

In the case of `O=C([O-])[O-].[Na+].[Na+]` [0.3 M soda ash, pH 11.4, sodium carbonate], the “Mean Decay (%)” value (P. digitatum [1]; [13]) is reported as 10.000% and the “Mean Decay (%)” value (P. digitatum [1]; [15]) is reported as 10.000%.

In the case of `O=C([O-])O.[Na+]` [BCB 3% alone, sodium bicarbonate], the “Mean Decay (%)” value (P. digitatum [5]; in vivo) is reported as 7.000% and the decay control (P. digitatum [12]) is reported as roughly 100%.

For `[Na+].[O-]Cl` [High Cl, sodium hypochlorite], the “% Fruit Decay (Average)” value [11, 18] was 97.5%, the “% Fruit Decay (Average)” value [11, 19] was 98% and the “Total Decay” value [11, 18] was 197. The “Total Decay” value [11, 19] was 196, the No decay [11, 18] was 5 and the No decay [11, 19] was 4.

In the case of `OCl` [HOCl pH 7.5, HOCl], the “Mean Decay (%)” value (P. digitatum [1]; [13]) is reported as 99.000% and the “Mean Decay (%)” value (P. digitatum [1]; second set of data, dipping, listed as HOCl pH 7.5 alone) is reported as 99.000%.

For `O=C([O-])[O-].[Na+].[Na+]` [0.15 M soda ash, pH 11.4, sodium carbonate], the “Mean Decay (%)” value (P. digitatum [1]; [13]) was 31.000% and the “Mean Decay (%)” value (P. digitatum [1]; [15]) was 31.000%.
